According to article PMC8175309, “Translational CNS Steady-State Drug Disposition Model in Rats, Monkeys, and Humans for Quantitative Prediction of Brain-to-Plasma and Cerebrospinal Fluid-to-Plasma Unbound Concentration Ratios” (The AAPS Journal, 2021):
Like-named read-outs stand apart in the source and are kept apart here.

Key:
[1] = cited from earlier work
[2] = cited from earlier work; remark: listed apart in the source
BCRP = molecular target: T1, BCRP (Homo sapiens, UniProt Q9UNQ0); assay: Transcellular transport across MDCK-BCRP cell monolayers (efflux ratio); conditions: dog, pH 7.4
T1 sequence (Q9UNQ0 1-655): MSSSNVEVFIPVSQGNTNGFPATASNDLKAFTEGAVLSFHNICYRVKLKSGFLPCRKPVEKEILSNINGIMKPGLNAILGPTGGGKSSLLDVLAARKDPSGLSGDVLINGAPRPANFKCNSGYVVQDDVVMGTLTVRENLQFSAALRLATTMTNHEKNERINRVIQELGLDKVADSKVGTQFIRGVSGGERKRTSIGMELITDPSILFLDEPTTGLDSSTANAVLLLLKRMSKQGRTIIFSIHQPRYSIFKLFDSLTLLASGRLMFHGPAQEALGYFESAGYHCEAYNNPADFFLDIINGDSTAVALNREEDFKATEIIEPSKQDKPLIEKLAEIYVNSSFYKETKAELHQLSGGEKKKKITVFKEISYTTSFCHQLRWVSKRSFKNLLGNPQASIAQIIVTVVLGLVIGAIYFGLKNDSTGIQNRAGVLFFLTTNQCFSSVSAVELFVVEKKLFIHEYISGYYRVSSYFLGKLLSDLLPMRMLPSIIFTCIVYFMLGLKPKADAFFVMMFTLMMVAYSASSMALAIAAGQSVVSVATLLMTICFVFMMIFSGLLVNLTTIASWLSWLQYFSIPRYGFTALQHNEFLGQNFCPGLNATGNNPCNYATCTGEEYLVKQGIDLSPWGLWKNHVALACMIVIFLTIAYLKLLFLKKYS
Method: (§1) To the compounds available internally, in vitro efflux ratios for MDR1 and BCRP were determined by the following procedure (Supplemental Table 2). Test compound stock solutions in dimethyl sulfoxide (DMSO) were diluted in transport buffer (Hanks’ balanced salt solution (HBSS) with 10 mM HEPES, pH 7.4) to a concentration of 1 μM (DMSO < 1%) and applied to the apical or basolateral side of a cell monolayer derived from Madin-Darby canine kidney (MDCK)-MDR1 and MDCK-BCRP cells. Permeation of the test compounds from apical to basolateral (A to B) direction or B to A direction was measured in duplicate. The plate was incubated for 1 h in a CO2 incubator at 37±1°C with 5% CO2 at saturated humidity without shaking. In addition, the efflux ratio of each compound was also determined. Test and reference compounds were quantified by LC-MS/MS analysis based on the peak area ratio of analyte/internal standard.
(§2) The apparent permeability coefficient Papp (cm/s) was calculated by using Eq. 1: 1 Papp=dCr/dt×Vr/A×C0 where dCr/dt is the cumulative concentration of the compound in the receiver chamber as a function of time (μM/s); Vr is the volume of the solution in the receiver chamber (0.075 mL on the apical side, 0.25 mL on the basolateral side); A is the surface area for transport, i.e., 0.0804 cm^2 for the area of the monolayer; and C0 is the initial concentration (μM) in the donor chamber.
(§3) The efflux ratio was calculated using Eq. 2: 2 Efflux ratio=Papp,BtoA/Papp,AtoB

MDR1 = MDR1 (Homo sapiens, UniProt P08183); assay: in vitro; conditions: dog, MDCK-MDR1, pH 7.4
Method: as §1, §2, §3

MDR1, sequence (P08183 whole entry): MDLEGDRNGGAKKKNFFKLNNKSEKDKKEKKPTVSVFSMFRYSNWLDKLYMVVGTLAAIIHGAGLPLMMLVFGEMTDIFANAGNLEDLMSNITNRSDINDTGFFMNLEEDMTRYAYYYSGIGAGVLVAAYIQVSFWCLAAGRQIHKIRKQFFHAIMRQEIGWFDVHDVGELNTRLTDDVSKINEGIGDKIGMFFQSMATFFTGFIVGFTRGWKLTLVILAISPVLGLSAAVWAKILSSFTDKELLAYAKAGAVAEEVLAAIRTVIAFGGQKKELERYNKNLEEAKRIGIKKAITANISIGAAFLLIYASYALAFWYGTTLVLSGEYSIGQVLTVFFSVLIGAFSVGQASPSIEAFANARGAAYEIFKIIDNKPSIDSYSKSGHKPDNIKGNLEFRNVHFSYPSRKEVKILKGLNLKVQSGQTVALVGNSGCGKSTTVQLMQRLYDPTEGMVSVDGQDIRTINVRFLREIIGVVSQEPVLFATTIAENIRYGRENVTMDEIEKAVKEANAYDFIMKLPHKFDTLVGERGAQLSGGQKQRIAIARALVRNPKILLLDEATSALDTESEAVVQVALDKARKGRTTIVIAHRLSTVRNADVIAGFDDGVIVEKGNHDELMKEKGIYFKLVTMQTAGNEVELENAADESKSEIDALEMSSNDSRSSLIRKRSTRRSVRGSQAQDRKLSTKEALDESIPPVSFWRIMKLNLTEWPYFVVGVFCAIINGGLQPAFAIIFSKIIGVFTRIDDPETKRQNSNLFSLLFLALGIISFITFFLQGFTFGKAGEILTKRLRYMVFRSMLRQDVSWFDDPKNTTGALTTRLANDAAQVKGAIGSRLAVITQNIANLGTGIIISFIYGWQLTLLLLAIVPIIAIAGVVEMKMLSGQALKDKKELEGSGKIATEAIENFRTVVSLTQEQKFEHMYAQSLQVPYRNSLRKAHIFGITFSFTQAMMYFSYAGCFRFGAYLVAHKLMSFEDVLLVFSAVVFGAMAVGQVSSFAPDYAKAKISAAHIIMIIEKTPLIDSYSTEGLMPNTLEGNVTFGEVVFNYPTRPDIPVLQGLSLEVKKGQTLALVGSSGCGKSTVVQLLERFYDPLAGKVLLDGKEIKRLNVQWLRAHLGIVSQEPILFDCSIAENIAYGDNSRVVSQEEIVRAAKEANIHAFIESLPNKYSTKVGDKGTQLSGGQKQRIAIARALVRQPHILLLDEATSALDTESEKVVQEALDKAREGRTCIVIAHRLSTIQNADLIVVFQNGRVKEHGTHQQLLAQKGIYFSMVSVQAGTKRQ

Compound	Kp,uu,CSF Human ([1]; *4 ref Friden et al. (21))	Kp,uu,CSF Rat ([2]; *4 ref Friden et al. (21))	efflux ratio at 1 h, 1 μM (BCRP)	efflux ratio at 1 h, 1 μM (MDR1)	Kp,uu,brain Rat ([2]; *4 ref Friden et al. (21))	Kp,uu,CSF Human ([1]; in vivo)	Kp,uu,CSF Rat ([2]; in vivo)	Kp,uu,brain Human ([1]; *3 ref Summerfield et al. (25))	Kp,uu,brain Rat ([2]; *3 ref Summerfield et al. (25))
COc1ccc2c(c1)c(CC(=O)O)c(C)n2C(=O)c1ccc(Cl)cc1 [Indomethacin]	0.27	0.17	12	3.2					
CN(Cc1cnc2nc(N)nc(N)c2n1)c1ccc(C(=O)N[C@@H](CCC(=O)O)C(=O)O)cc1 [Methotrexate]	0.062	0.007	1.2	1.4					
CC(C)NCC(O)COc1cccc2[nH]ccc12 (stereo not shown) [Pindolol]	0.52	0.11	1.2	5.7	0.500				
CN[C@H]1CC[C@@H](c2ccc(Cl)c(Cl)c2)c2ccccc21 [Sertraline]			1.2	0.5					
Nc1c2c(nc3ccccc13)CCCC2 [Tacrine]			1.1	1		0.74	0.67		
CC1(C)O[C@@H]2[C@@H](CO[C@@]3(COS(N)(=O)=O)OC(C)(C)O[C@@H]23)O1 [Topiramate]	1	0.63	0.7	25	0.330				
COc1ccc(C(CN(C)C)C2(O)CCCCC2)cc1 (stereo not shown) [Venlafaxine]			0.7	7.6				0.86	1.074
